The subject of assay [1] is dopamine in NAc shell. Briefly: In vivo microdialysis, dopamine release in NAc shell. The arrangement: species or system Wistar rats. The note with it: n = 8 per group. The source says: Male and female Rcc Han Wistar rats (8–12 weeks old at arrival; Envigo, Horst, Netherlands) were used for the alcohol drinking and locomotor activity experiments as they drink alcohol to intoxicating levels. For in vivo microdialysis studies male Wistar rats (Charles River, Calco, Italy) were used as they display robust dopamine levels in NAc shell after alcohol injection. […] All rodents were allowed to habituate to the animal facility at least one week before they entered an experiment. […] The sample sizes of each experiment were based on previous experience in which statistical significance has been detected. The person who conducted the experiments, and analyzed the collected data was aware of the treatment allocation. Only preset exclusion criteria were used when analyzing the data obtained in attempts to exclude confounding factors in analyzing data. In the alcohol drinking experiments leaking bottles and low alcohol consumption (<3.0 g/kg for males; <3.5 g/kg for females) were preset exclusion criteria. The preset exclusion criterion in the ex vivo HPLC-EC, ELISA, and recombinant cell line experiments was contamination of the sample. Misplaced probes, technical difficulties, and damages to the surgery area were preset exclusion criteria for the in vivo microdialysis experiment. Intra-cage male aggression was the preset exclusion criterion for the locomotor activity and CPP experiments. To minimize tentative confounding factors, the order of treatments was stratified, with treatments being mixed for each animal cage and for each apparatus used as well as balancing the alcohol intake between future treatment groups. […]
The data from drinking experiments were analyzed by unpaired t-test or repeated two-way ANOVA. A two-tailed unpaired t-test analyzed the ELISA, ex vivo HPLC-EC, and cFOS data. […] A one-way ANOVA with Bonferroni post hoc tests and unpaired t-test analyzed the locomotor activity and CPP data, respectively. The in vivo microdialysis experiments were evaluated by a repeated two-way ANOVA followed by the Bonferroni post hoc test.

In assay [2] the test system is monoaminergic neurotransmission in VTA and other brain areas. Kind of assay: Ex vivo monoamine content (HPLC-EC) in brain areas of alcohol-drinking rats after repeated DAG. On the set-up: species or system Rcc Han Wistar rats. The source says:
Male and female Rcc Han Wistar rats (8–12 weeks old at arrival; Envigo, Horst, Netherlands) were used for the alcohol drinking and locomotor activity experiments as they drink alcohol to intoxicating levels. For in vivo microdialysis studies male Wistar rats (Charles River, Calco, Italy) were used as they display robust dopamine levels in NAc shell after alcohol injection. […] All rodents were allowed to habituate to the animal facility at least one week before they entered an experiment. During housing (20 °C with 50% humidity) the rodents had free access to water and standard chow (Teklad Rodent Diet; Envigo, Madison, WI, USA). These experiments were approved by the Ethics Committee for Animal Experiments (ethical numbers: 1457/18, 3276/18, 1556/18, 3348/20; Gothenburg, Sweden) and followed the ARRIVE guidelines. The sample sizes of each experiment were based on previous experience in which statistical significance has been detected. The person who conducted the experiments, and analyzed the collected data was aware of the treatment allocation. Only preset exclusion criteria were used when analyzing the data obtained in attempts to exclude confounding factors in analyzing data. In the alcohol drinking experiments leaking bottles and low alcohol consumption (<3.0 g/kg for males; <3.5 g/kg for females) were preset exclusion criteria. The preset exclusion criterion in the ex vivo HPLC-EC, ELISA, and recombinant cell line experiments was contamination of the sample. Misplaced probes, technical difficulties, and damages to the surgery area were preset exclusion criteria for the in vivo microdialysis experiment. Intra-cage male aggression was the preset exclusion criterion for the locomotor activity and CPP experiments. To minimize tentative confounding factors, the order of treatments was stratified, with treatments being mixed for each animal cage and for each apparatus used as well as balancing the alcohol intake between future treatment groups. Although each experiment only was performed once, they were separated over different laboratory days with equal data obtained between sessions.
Individually housed rats had intermittent access to an alcohol (20%) bottle and a water bottle, three 24-h sessions per week, and only water bottles the remaining days. A reversed light/dark cycle was used, and the bottles were changed when the lights went out. First, the rats consumed alcohol for 10 weeks (baseline drinking), where the bottles and food were weighed daily and the body weight weekly. During treatments, the bottles and food were weighed at 4- and/or 24-h and the body weight was measured daily. In the first drinking experiment, the potential of DAG to reduce alcohol consumption was tested and therefore, vehicle or DAG (1 mg/kg) was acutely injected into male (n = 12) or female (n = 12) rats. The second drinking experiment was conducted to establish the effects of lower DAG doses on alcohol intake. Therefore, separate male (n = 18) or female (n = 18) rats, were acutely injected with lower DAG doses (0.5 or 0.25 mg/kg) or vehicle. The third alcohol drinking experiment evaluated the ability of repeated DAG injections to lower alcohol drinking. Therefore, additional male (n = 24) and female (n = 24) rats were injected with either vehicle or DAG (1 mg/kg) at three alcohol-drinking sessions. At the end of the third drinking session, the rats were euthanized and decapitated, and the brains were placed in a brain-slicing matrix. Brain areas central for reward (VTA, NAc shell, NAc core, LDTg, dorsal striatum, hippocampus, paraventricular thalamus, prefrontal cortex, central amygdala) were punched and stored at −80 °C. Each sample was homogenized, and then the monoamine content in the supernatant was analyzed in an HPLC-EC system as described before, allowing tentative determination of brain regions, directly or indirectly, affected by DAG.
The obtained data are normally distributed and with equal variance. […]

Where [3] appears, read: alcohol-drinking female rats, repeated DAG n = 7 vs vehicle n = 9.
The mark [4] stands for this setting: alcohol-drinking male rats, repeated DAG n = 8 vs vehicle n = 7.

From paper PMC11224403, “Des-acyl ghrelin reduces alcohol intake and alcohol-induced reward in rodents” (Translational Psychiatry, 2024) come the findings set out here.

On to “des-acyl ghrelin (GSSFLSPEHQRVQQRKESKKPPAKLQPR; Ghrelin-28 non-acylated; UniProt Q9UBU3 24-51, looked up) [DAG, non-octanoylated form of ghrelin; purchased from Tocris (printed Tocrise Bioscience), dissolved in 0.9% NaCl]”, for which, in assay [1] (DAG 1 mg/kg without alcohol), the “dopamine in NAc shell, DAG per se” value is “did not affect dopamine in the NAc shell per se”. Also, the “alcohol-induced dopamine release in NAc shell (effect of DAG)” value in assay [1] (male rats (methods), DAG 1 mg/kg plus alcohol vs vehicle-alcohol) is given as “suppressed this enhancement (40 min P = 0.0396, 80 min P < 0.0001, 160 min P = 0.0400, 200 min P = 0.0010, 220 min P = 0.0458)”. For the same substance, in assay [2] (setting [3]), the “ex vivo DOPAC level, VTA” value is reported as “did not change the levels of D DOPAC (t14 = 0.41, P = 0.6904)”; the “ex vivo HVA level, VTA” value is recorded as “did not change the levels of D DOPAC (t14 = 0.41, P = 0.6904), E HVA (t14 = 0.66, P = 0.5196)”; the “ex vivo dopamine level, VTA” value is “did not change the levels of D DOPAC (t14 = 0.41, P = 0.6904), E HVA (t14 = 0.66, P = 0.5196), or F dopamine (t14 = 0.12, P = 0.9080)”. Further, the “dopamine turnover, 5-HIAA, serotonin and serotonin turnover, VTA” value in assay [2] (alcohol-drinking male or female rats, repeated DAG) is given as “neither affected the dopamine turnover, 5-hydroxy indole acetic acid (5-HIAA), serotonin, nor serotonin turnover”. In assay [2] (alcohol-drinking male rats, repeated DAG), the “ex vivo noradrenaline level, VTA” value is “tended to elevate the ex vivo noradrenaline levels in this area of male rats (Supplementary Fig. 4E, P = 0.0819)”. Moreover, in assay [2] (setting [4]), the “ex vivo DOPAC level, VTA” value is listed as “increased the ex vivo levels of A DOPAC (t13 = 2.94, P = 0.0116)”; the “ex vivo HVA level, VTA” value was “increased the ex vivo levels of A DOPAC (t13 = 2.94, P = 0.0116) and B HVA (t13 = 3.00, P = 0.0102)”; the “ex vivo dopamine level, VTA” value is recorded as “tended to elevate the dopamine levels (t13 = 1.72, P = 0.1091)”. Moreover, the “monoaminergic neurotransmission in other brain areas” value in assay [2] (males and females, repeated DAG, central amygdala, hippocampus, laterodorsal tegmental area, NAc core and shell, prefrontal cortex, paraventricular thalamus, striatum, data not shown) is listed as “Neither in males nor females, DAG altered the monoaminergic neurotransmission”.
